This is an account of results in patent US12202818B2, “Compounds and methods for CD73 modulation and indications therefor” (Opna Bio SA, priority 2020, dated 2025).

One assay addresses T1, human CD73 (Homo sapiens, UniProt P21589).
T1 construct: expressed in transfected cells
T1 sequence (P21589 27-549): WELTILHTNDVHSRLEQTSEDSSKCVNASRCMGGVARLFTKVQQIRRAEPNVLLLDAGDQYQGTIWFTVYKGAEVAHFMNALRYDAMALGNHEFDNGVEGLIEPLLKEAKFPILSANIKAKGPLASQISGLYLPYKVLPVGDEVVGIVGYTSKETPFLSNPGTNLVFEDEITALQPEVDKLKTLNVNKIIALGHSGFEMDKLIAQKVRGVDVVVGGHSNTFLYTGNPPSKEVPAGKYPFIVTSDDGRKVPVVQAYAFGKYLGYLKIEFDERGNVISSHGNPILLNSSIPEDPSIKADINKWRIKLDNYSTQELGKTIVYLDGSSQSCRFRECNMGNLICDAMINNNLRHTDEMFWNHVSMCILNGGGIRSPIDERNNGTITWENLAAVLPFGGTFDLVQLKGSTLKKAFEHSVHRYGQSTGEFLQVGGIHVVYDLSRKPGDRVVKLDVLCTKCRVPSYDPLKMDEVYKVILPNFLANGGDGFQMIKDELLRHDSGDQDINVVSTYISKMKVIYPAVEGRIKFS
As to the kind of experiment: Inhibitor activity against CD73 in cell based assay (CD73 expressing CHO-K1 cells). The settings on record: CHO-K1 cells expressing human CD73, 150 μM AMP, 4 hours of incubation; read-out: CHO-K1 CELL_VARIANT: CD73 IC50. Put shortly: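 AMP (150 μM) was added alongside 8 titrated compound doses (maximum 10 μM, 1:3 steps) to CHO-K1 cells stably expressing human CD73. After 4 h, supernatant AMP was measured indirectly with CellTiter-Glo 2.0 plus 1 μM ATP (30 min, RT). % inhibition versus high and low controls was fitted nonlinearly for IC50.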

Assay [1] concerns the target T2, Human CD73 (amino acid residues 27-549) (Homo sapiens, UniProt P21589).
T2 construct: Human CD73 (amino acid residues 27-549); His tag (N); made in house; host or cells: E. coli
T2 sequence (P21589 27-549): T1 sequence (P21589 27-549)
The assay is described as follows: CD73 enzymatic assay (luciferase-based indirect assay, CellTiter-Glo). The class given is biochemical. The conditions noted are these: 0.4 nM CD73, 150 μM AMP, 1 hour at room temperature. Put shortly: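 Luciferase-coupled readout: AMP left after CD73 turnover suppresses CellTiter-Glo signal (1 μM ATP final, 30 min RT). Reaction beforehand: 150 μM AMP, 0.4 nM E. coli-made His-tagged CD73 residues 27-549, test compound, HEPES pH 7.4 with Tween-20, 1 h RT. % inhibition fitted nonlinearly for IC50.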
For orientation: In ATP-based viability assays light output follows the ATP content of the culture.

What is called IC50 is the concentration needed to halve the response being measured. Regarding `Cc1nn(C)c(C)c1-c1ccnc(O[C@@H]2CCN(c3cnn(CC(O)CO)c(=O)c3Cl)C2)c1` (stereo partly drawn) [P-0131, 4-chloro-2-(2,3-dihydroxypropyl)-5-((R)-3-((4-(1,3,5-trimethyl-1H-pyrazol-4-yl)pyridin-2-yl)oxy)pyrrolidin-1-yl)pyridazin-3(2H)-one], the IC50 (at human CD73; in assay [1]) was 0.001 to 10 µM in each case.

Turning to `Cc1noc(C)c1-c1cc(O[C@H]2CN(c3cnn(CCO)c(=O)c3Cl)C[C@@H]2F)ncc1F` [P-0132, 4-chloro-5-((3S,4S)-3-((4-(3,5-dimethylisoxazol-4-yl)-5-fluoropyridin-2-yl)oxy)-4-fluoropyrrolidin-1-yl)-2-(2-hydroxyethyl)pyridazin-3(2H)-one], the IC50 (at human CD73; in assay [1]) was 0.001 to 10 µM in each case.

In the case of `Cc1nn(CC2(F)COC2)c(C)c1-c1cc(F)nc(O[C@@H]2CCN(c3cn[nH]c(=O)c3Cl)C2)c1` [P-0133, (R)-4-chloro-5-(3-((6-fluoro-4-(1-((3-fluorooxetan-3-yl)methyl)-3,5-dimethyl-1H-pyrazol-4-yl)pyridin-2-yl)oxy)pyrrolidin-1-yl)pyridazin-3(2H)-one], the IC50 (on human CD73; in assay [1]) was 0.001 to 10 µM in each case.

In the case of `Cc1noc(C)c1-c1cc(O[C@H]2CN(c3cn[nH]c(=O)c3Cl)C[C@@H]2F)ncc1F` [P-0134, 4-chloro-5-((3S,4S)-3-((4-(3,5-dimethylisoxazol-4-yl)-5-fluoropyridin-2-yl)oxy)-4-fluoropyrrolidin-1-yl)pyridazin-3(2H)-one], the IC50 (on human CD73; in assay [1]) was 0.001 to 10 µM throughout.

As to `Cc1nn(C)c(C)c1-c1cc(O[C@@H]2CCN(c3cnn(CCO)c(=O)c3Cl)C2)ccn1` [P-0135, (R)-4-chloro-2-(2-hydroxyethyl)-5-(3-((2-(1,3,5-trimethyl-1H-pyrazol-4-yl)pyridin-4-yl)oxy)pyrrolidin-1-yl)pyridazin-3(2H)-one], the IC50 (at human CD73; in assay [1]) was 0.001 to 10 µM throughout.

As for `Cc1noc(C)c1-c1cc(O[C@@H]2CCN(c3cnn(CCO)c(=O)c3Cl)C2)ccn1` [P-0136, (R)-4-chloro-5-(3-((2-(3,5-dimethylisoxazol-4-yl)pyridin-4-yl)oxy)pyrrolidin-1-yl)-2-(2-hydroxyethyl)pyridazin-3(2H)-one], the IC50 (on human CD73; in assay [1]) was 0.001 to 10 µM in each case.

Take `Cc1nn(C)c(C)c1-c1cc(O[C@@H]2CCN(c3cn[nH]c(=O)c3Cl)C2)ccn1` [P-0137, (R)-4-chloro-5-(3-((2-(1,3,5-trimethyl-1H-pyrazol-4-yl)pyridin-4-yl)oxy)pyrrolidin-1-yl)pyridazin-3(2H)-one]: the IC50 (on human CD73; in assay [1]) was 0.001 to 10 µM each time.

Take `Cc1noc(C)c1-c1cc(O[C@@H]2CCN(c3cn[nH]c(=O)c3Cl)C2)ccn1` [P-0138, (R)-4-chloro-5-(3-((2-(3,5-dimethylisoxazol-4-yl)pyridin-4-yl)oxy)pyrrolidin-1-yl)pyridazin-3(2H)-one]: the IC50 (at human CD73; in assay [1]) was 0.001 to 10 µM throughout.

Turning to `Cc1noc(C)c1-c1cc(O[C@@H]2CCN(c3cnn(CCCO)c(=O)c3Cl)C2)ncn1` [P-0139, (R)-4-chloro-5-(3-((6-(3,5-dimethylisoxazol-4-yl)pyrimidin-4-yl)oxy)pyrrolidin-1-yl)-2-(3-hydroxypropyl)pyridazin-3(2H)-one], the IC50 (at human CD73; in assay [1]) was 0.001 to 10 µM in each case.

With `Cc1noc(C)c1-c1cc(O[C@@H]2CCN(c3cnn(CC(O)CO)c(=O)c3Cl)C2)ncn1` (stereo partly drawn) [P-0140, 4-chloro-2-(2,3-dihydroxypropyl)-5-((R)-3-((6-(3,5-dimethylisoxazol-4-yl)pyrimidin-4-yl)oxy)pyrrolidin-1-yl)pyridazin-3(2H)-one], the 50% inhibitory concentration (IC50) (at human CD73; in assay [1]) was 0.001 to 10 µM in each case.

As for `Cc1noc(C)c1-c1cc(O[C@@H]2CCN(c3cnn(CCN)c(=O)c3Cl)C2)ncn1` [P-0141, (R)-2-(2-aminoethyl)-4-chloro-5-(3-((6-(3,5-dimethylisoxazol-4-yl)pyrimidin-4-yl)oxy)pyrrolidin-1-yl)pyridazin-3(2H)-one], the IC50 (on human CD73; in assay [1]) was 0.001 to 10 µM each time.

Turning to `Cc1nn(C)c(C)c1-c1ccnc(O[C@H]2CN(c3cnn(CCO)c(=O)c3Cl)C[C@@H]2F)c1` [P-0142, 4-chloro-5-((3S,4S)-3-fluoro-4-((4-(1,3,5-trimethyl-1H-pyrazol-4-yl)pyridin-2-yl)oxy)pyrrolidin-1-yl)-2-(2-hydroxyethyl)pyridazin-3(2H)-one], the IC50 (on human CD73; in assay [1]) was 0.001 to 10 µM in each case.

As for `Cc1nn(C)c(C)c1-c1ccnc(O[C@@H]2CCN(c3cnn(CCO)c(=O)c3Cl)C2)c1` [P-0143, (R)-4-chloro-2-(2-hydroxyethyl)-5-(3-((4-(1,3,5-trimethyl-1H-pyrazol-4-yl)pyridin-2-yl)oxy)pyrrolidin-1-yl)pyridazin-3(2H)-one], the IC50 (at human CD73; in assay [1]) was 0.001 to 10 µM in each case.

On to `Cc1nn(C)c(C)c1-c1cc(O[C@H]2CN(c3cnn(CCO)c(=O)c3Cl)C[C@@H]2F)ncn1` [P-0144, 4-chloro-5-((3S,4S)-3-fluoro-4-((6-(1,3,5-trimethyl-1H-pyrazol-4-yl)pyrimidin-4-yl)oxy)pyrrolidin-1-yl)-2-(2-hydroxyethyl)pyridazin-3(2H)-one], for which the IC50 (at human CD73; in assay [1]) was 0.001 to 10 µM each time.

For `Cc1noc(C)c1-c1cc(O[C@H]2CN(c3cnn(CCO)c(=O)c3Cl)C[C@@H]2F)ncn1` [P-0145, 4-chloro-5-((3S,4S)-3-((6-(3,5-dimethylisoxazol-4-yl)pyrimidin-4-yl)oxy)-4-fluoropyrrolidin-1-yl)-2-(2-hydroxyethyl)pyridazin-3(2H)-one], the IC50 (at human CD73; in assay [1]) was 0.001 to 10 µM in each case.

For the compound `Cc1noc(C)c1-c1cc(O[C@@H]2CCN(c3cnn(CCO)c(=O)c3Cl)C2)ncc1F` [P-0146, (R)-4-chloro-5-(3-((4-(3,5-dimethylisoxazol-4-yl)-5-fluoropyridin-2-yl)oxy)pyrrolidin-1-yl)-2-(2-hydroxyethyl)pyridazin-3(2H)-one], the IC50 (on human CD73; in assay [1]) was 0.001 to 10 µM throughout.

Regarding `Cc1nn(C)c(C)c1-c1cc(O[C@H]2CN(c3cn[nH]c(=O)c3Cl)C[C@@H]2F)ncn1` [P-0147, 4-chloro-5-((3S,4S)-3-fluoro-4-((6-(1,3,5-trimethyl-1H-pyrazol-4-yl)pyrimidin-4-yl)oxy)pyrrolidin-1-yl)pyridazin-3(2H)-one], the IC50 (on human CD73; in assay [1]) was 0.001 to 10 µM each time.

`Cc1noc(C)c1-c1cc(O[C@H]2CN(c3cn[nH]c(=O)c3Cl)C[C@@H]2F)ncn1` [P-0148, 4-chloro-5-((3S,4S)-3-((6-(3,5-dimethylisoxazol-4-yl)pyrimidin-4-yl)oxy)-4-fluoropyrrolidin-1-yl)pyridazin-3(2H)-one]: the IC50 (on human CD73; in assay [1]) was 0.001 to 10 µM in each case.

As for `Cc1noc(C)c1-c1cc(O[C@@H]2CCN(c3cn[nH]c(=O)c3Cl)C2)ncc1F` [P-0149, (R)-4-chloro-5-(3-((4-(3,5-dimethylisoxazol-4-yl)-5-fluoropyridin-2-yl)oxy)pyrrolidin-1-yl)pyridazin-3(2H)-one], the IC50 (at human CD73; in assay [1]) was 0.001 to 10 µM throughout.

Regarding `COCc1noc(C)c1-c1ccnc(O[C@@H]2CCN(c3cn[nH]c(=O)c3Cl)C2)c1` [P-0150, (R)-4-chloro-5-(3-((4-(3-(methoxymethyl)-5-methylisoxazol-4-yl)pyridin-2-yl)oxy)pyrrolidin-1-yl)pyridazin-3(2H)-one], the IC50 (at human CD73; in assay [1]) was 0.001 to 10 µM each time.

With `Cc1c(-c2cc(F)nc(O[C@@H]3CCN(c4cn[nH]c(=O)c4Cl)C3)c2)cnn1CC1(C)COC1` [P-0151, (R)-4-chloro-5-(3-((6-fluoro-4-(5-methyl-1-((3-methyloxetan-3-yl)methyl)-1H-pyrazol-4-yl)pyridin-2-yl)oxy)pyrrolidin-l-yl)pyridazin-3(2H)-one], the IC50 (at human CD73; in assay [1]) was 0.001 to 10 µM each time.

For the compound `Cc1nn(CC2CC2)c(C)c1-c1cc(F)nc(O[C@@H]2CCN(c3cn[nH]c(=O)c3Cl)C2)c1` [P-0152, (R)-4-chloro-5-(3-((4-(1-(cyclopropylmethyl)-3,5-dimethyl-1H-pyrazol-4-yl)-6-fluoropyridin-2-yl)oxy)pyrrolidin-1-yl)pyridazin-3(2H)-one], the IC50 (on human CD73; in assay [1]) was 0.001 to 10 µM each time.

On to `Cc1c(C)n(-c2cc(F)nc(O[C@@H]3CCN(c4cn[nH]c(=O)c4Cl)C3)c2)c2ccccc12` [P-0153, (R)-4-chloro-5-(3-((4-(2,3-dimethyl-1H-indol-1-yl)-6-fluoropyridin-2-yl)oxy)pyrrolidin-1-yl)pyridazin-3(2H)-one], for which the IC50 (at human CD73; in assay [1]) was 0.001 to 10 µM each time.
